Experimental data reported in US4315941A, “Urazole analogs of prostaglandin derivatives” (Beecham Group Limited, priority 1979, dated 1982).

system: 5-hydroxytryptamine or histamine induced bronchoconstriction; assay: Bronchodilation activity: inhibition of 5-hydroxytryptamine or histamine induced bronchoconstriction in the anaesthetised artificially respired guinea-pig (Konzett-Rossler preparation); format: in vivo, guinear-pig; conditions: Cavia porcellus, iv, 5-hydroxytryptamine or histamine induced bronchoconstriction (Konzett-Rossler)
From the text: The compounds were examined for their ability to inhibit 5-hydroxytryptamine or histamine induced bronchoconstriction in the anaesthetised artificially respired guinear-pig (Konzett-Rossler preparation).

Row | SMILES | ED50 [mg/kg]
1 | CCCCC(C)C(C)(O)CCn1c(=O)n(C)c(=O)n1CCCCCCCCC(C)O (stereo not shown) [Compound 1, 1-(9'-Hydroxydecyl)-2-(3"-hydroxy-3",4"-dimethyloctyl)-4-methyl-1,2,4-triazolidine-3,5-dione] | 0.02
2 | CCCCC(C)C(C)(O)CCn1c(=O)n(C)c(=O)n1C/C=C\CCCCC(C)O (stereo not shown) [Compound 3] | 0.0175
3 | CCCCCCC(C)(O)CCn1c(=O)n(C)c(=O)n1CCCCCCCC(C)O (stereo not shown) [Compound 4] | 0.0042
4 | CC(O)CCCC/C=C\Cn1c(=O)n(C)c(=O)n1CCC(C)(O)C1CCCCC1 (stereo not shown) [Compound 7] | 0.16
